Results from patent EP0066934A1, “Nitrofurantoin salts, their preparation and their use” ("PHARLYSE", Société Anonyme, priority 1981, dated 1982).

How the values were obtained:
[1] = aqueous solution; cited from earlier work
[2] = water, 25°C; cited from earlier work
Solubility in water = type: physicochemical
Description: La nitrofurantoïne ou N-(5-nitro-2-fur furylidène)-1-aminohydantoïne est un médicament, bien connu, utilisé notamment comme agent antiseptique des voies urinaires. […] Afin de pallier à cet inconvénient, différentes formes cristallines ont été développées avec peu de succès. Des sels de métaux alcalins de nitrofurantoine ont également été réalisés mais ceux-ci, bien que solubles, présentent l'inconvénient d'apporter avec eux, des ions alcalins qui sont souvent contre- indiqués, notamment lors des traitements au long cours chez les sujets soumis à un régime désodé.

[3] = 10% solution in water
Description: On refroidit à O°C une solution de 11,68 g de lysine base dans 190 ml d'eau. A cette solution limpide, on ajoute par petites portions et sous agitation 10,47 g de nitrofurantoïne. Quelques minutes après la fin de l'addition, la solution est filtrée, congelée et lyophilisée.

in vivo = conditions: po, dose létale pour 50% des animaux
Description: La toxicité de la nitrofurantoïne est connue pour donner des résultats variables suivant les caractéristiques du produit utilisé, notamment la taille des cristaux.

**Q.** Which “pKa en solution aqueuse” value [1] does the source give for `O=C1CN(/N=C/c2ccc([N+](=O)[O-])o2)C(=O)N1` [nitrofurantoïne, N-(5-nitro-2-furfurylidène)-1-aminohydantoïne] here?
**A.** ~7,2

**Q.** What about the “soluble dans l'eau” value [2] of the same compound?
**A.** 19 mg/100 ml

**Q.** Which solubility (Solubility in water; 20°C, read-out: solubilité dans l'eau à 20°C) does the source give for `O=C1CN(N=Cc2ccc([N+](=O)[O-])o2)C(=O)N1` [Exemple 1] here?
**A.** > 300 mg/mL

**Q.** What about the “solubilité dans l'eau (result in words)” value (Solubility in water; qualitative) of the same compound?
**A.** instantanément soluble dans l'eau

**Q.** And the “pH d'une solution à 10% dans l'eau” value [3]?
**A.** 8,9 - 9,5

**Q.** What does the source list for `O=C1CN(N=Cc2ccc([N+](=O)[O-])o2)C(=O)N1` [Exemple 2]?
**A.** LD50 (in vivo; mouse): 960 mg/kg; LD50 (in vivo; mouse, en nitrofurantoïne pure): 530 mg/kg; LD50 (in vivo; rat): 1910 mg/kg; LD50 (in vivo; rat, en nitrofurantoine pure): 1050 mg/kg
